# Measurements as given in patent US7273723B2, “Antibiotic-based gene regulation system” (priority 2001, dated 2007).
# How the values were obtained:
# [1] = system: PSV40 or PhCMV-driven SEAP expression constructs; experiment: SEAP expression from constitutive PSV40 or PhCMV-driven constructs with erythromycin; type: cell-based; conditions: data not shown
# [2] = system: ET1 / plant promoters PETRp1, PETRp8; experiment: EpOFF erythromycin-repressible GUS expression in Nicotiana tabacum SR1 suspension cells; type: cell-based; conditions: erythromycin 250 μg/ml, 48 hours
# Description: The transformation protocol of SR1 cells was adapted from Wu and Feng (1999, Plant Cell Reports 18: 381-386). In brief, 200 mg of exponentially growing SR1 cells were harvested by centrifugation. The cells were incubated for 15 min. in 2% DMSO and washed twice in fresh medium. Cells were subsequently resuspended in electroporation buffer (5 mM CaCl2; 10 mM NaCl2; 0.4 M sucrose; 8.7% glycerol; 4 mM ascorbate; 10 mM HEPES; pH 6.8) and mixed with desired DNA at a concentration of 0.2 μg/μl. The cell-DNA mixture was incubated for 10 min. on ice electroporated at 700 V/cm and 980 μF using a BioRad Gene Pulser and appropriate cuvettes. […]
# Transformed SR1 cells were incubated at 25° C. for 48 h while rocking at 110 rpm. […] Protein concentration of plant extracts was determined using a Bradford assay (Bradford, 1976, Anal. Biochem. 72: 248-254). […] The fluorescence time course was determined using typical 365 nm/455 nm excitation/emission profiles and a Shimadzu RF-5001 PC spectrofluorophotometer.
# pBP6 (PCaMV35S-ET1-pAocs, FIG. 9a) was cotransformed either with pBP 18 (PETRp1-GUS-pA35S; FIG. 9b) or pBP36 (PETRp8-GUS-pA35S; FIG. 9b) by electroporation into the Nicotiana tabacum cell line SR1. GUS activity was assessed after 48 hours using a fluorescence-based detection technology.
structure (smiles),measurement,setting,value
CC[C@H]1OC(=O)[C@H](C)[C@@H](O[C@H]2C[C@@](C)(OC)[C@@H](O)[C@H](C)O2)[C@H](C)[C@@H](O[C@@H]2O[C@H](C)C[C@H](N(C)C)[C@H]2O)[C@](C)(O)C[C@@H](C)C(=O)[C@H](C)[C@@H](O)[C@]1(C)O [Erythromycin],Influence on expression levels of PSV40 or PhCMV-driven SEAP expression constructs,[1],no influence
same,GUS expression level in the presence of erythromycin,[2]; pBP6 + pBP18 (PETRp1),32.2±3.9 pmoles 4-MU min^−1 mg^−1 protein^−1
same,GUS expression level in the presence of erythromycin,[2]; pBP6 + pBP36 (PETRp8),44.2±4.6 pmoles 4-MU min^−1 mg^−1 protein^−1
